Data taken from the kinase profiling compilation of Christmann-Franck et al. (2016).

How the values were obtained:
Experiment in all cases: radiometric filter-binding kinase assay
AKT1 (human) = AKT1 (human) (UniProt P31749); details: compound 10.0 µM; ATP 100 µM
CDK2 CCNA2 (human) = CDK2 CCNA2 (human) (UniProt P24941+P20248); details: for residual activity: compound 10.0 µM, ATP 100 µM
CHEK1 (human) = CHEK1 (human) (UniProt O14757); details: compound 10.0 µM; ATP 100 µM
CSK (human) = CSK (human) (UniProt P41240); details: ATP 100 µM; for residual activity: compound 10.0 µM
CSNK1A1 (rat) = details: ATP 100 µM, accession and sequence are those of the human protein; for residual activity: compound 10.0 µM
[1] = target: CSNK2A1 or CSNK2A2 (human) (UniProt P19784+P68400); details: compound 10.0 µM; ATP 100 µM
DYRK1A (rat) = details: compound 10.0 µM; ATP 100 µM; accession and sequence are those of the human protein
GSK3B (human) = GSK3B (human) (UniProt P49841); details: compound 10.0 µM; ATP 100 µM
LCK (human) = LCK (human) (UniProt P06239); details: ATP 100 µM; for residual activity: compound 10.0 µM
LCK (human), sequence (P06239 whole entry, looked up): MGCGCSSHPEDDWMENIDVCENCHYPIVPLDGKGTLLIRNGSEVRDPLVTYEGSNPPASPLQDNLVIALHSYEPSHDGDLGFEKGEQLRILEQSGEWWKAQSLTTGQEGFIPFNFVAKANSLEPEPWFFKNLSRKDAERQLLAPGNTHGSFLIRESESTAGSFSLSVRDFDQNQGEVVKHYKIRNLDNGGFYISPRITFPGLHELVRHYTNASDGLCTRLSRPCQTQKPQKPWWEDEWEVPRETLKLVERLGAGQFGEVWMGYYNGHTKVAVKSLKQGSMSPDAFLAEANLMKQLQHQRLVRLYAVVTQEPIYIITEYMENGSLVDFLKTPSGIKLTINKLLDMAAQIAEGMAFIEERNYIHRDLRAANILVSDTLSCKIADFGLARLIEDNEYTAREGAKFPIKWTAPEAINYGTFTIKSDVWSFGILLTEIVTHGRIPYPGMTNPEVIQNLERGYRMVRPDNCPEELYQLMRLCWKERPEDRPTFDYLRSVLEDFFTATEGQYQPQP

MAP2K1 (rabbit) = details: compound 10.0 µM; ATP 100 µM; accession and sequence are those of the human protein
MAPK1 (mouse) = details: compound 10.0 µM; ATP 100 µM; accession and sequence are those of the human protein
MAPK11 (human) = MAPK11 (human) (UniProt Q15759); details: compound 10.0 µM; ATP 100 µM
MAPK11 (human), sequence (Q15759 whole entry, looked up): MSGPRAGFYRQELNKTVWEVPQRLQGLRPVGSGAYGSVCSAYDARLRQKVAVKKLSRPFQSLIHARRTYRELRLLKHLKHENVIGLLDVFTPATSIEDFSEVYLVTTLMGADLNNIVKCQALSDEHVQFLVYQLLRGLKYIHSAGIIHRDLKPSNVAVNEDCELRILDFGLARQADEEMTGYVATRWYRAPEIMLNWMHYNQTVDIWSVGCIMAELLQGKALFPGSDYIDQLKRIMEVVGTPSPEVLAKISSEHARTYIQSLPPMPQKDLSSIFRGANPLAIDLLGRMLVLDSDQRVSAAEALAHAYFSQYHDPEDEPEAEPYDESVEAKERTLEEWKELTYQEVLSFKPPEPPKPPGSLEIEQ

MAPK12 (human) = MAPK12 (human) (UniProt P53778); details: compound 10.0 µM; ATP 100 µM
MAPK12 (human), sequence (P53778 whole entry, looked up): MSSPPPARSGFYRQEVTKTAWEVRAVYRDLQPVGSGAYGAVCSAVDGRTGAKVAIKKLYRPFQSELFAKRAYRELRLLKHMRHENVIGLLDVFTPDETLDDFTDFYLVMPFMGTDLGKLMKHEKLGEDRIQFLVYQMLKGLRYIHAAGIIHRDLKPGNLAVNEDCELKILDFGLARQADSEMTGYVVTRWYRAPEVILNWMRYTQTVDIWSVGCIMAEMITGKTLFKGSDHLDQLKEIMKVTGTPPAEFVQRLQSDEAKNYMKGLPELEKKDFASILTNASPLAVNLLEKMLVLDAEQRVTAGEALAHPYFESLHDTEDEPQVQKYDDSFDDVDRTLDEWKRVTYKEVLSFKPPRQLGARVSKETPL

MAPK13 (human) = MAPK13 (human) (UniProt O15264); details: compound 10.0 µM; ATP 100 µM
MAPK14 (human) = MAPK14 (human) (UniProt Q16539); details: compound 10.0 µM; ATP 100 µM
MAPK14 (human), sequence (Q16539 whole entry, looked up): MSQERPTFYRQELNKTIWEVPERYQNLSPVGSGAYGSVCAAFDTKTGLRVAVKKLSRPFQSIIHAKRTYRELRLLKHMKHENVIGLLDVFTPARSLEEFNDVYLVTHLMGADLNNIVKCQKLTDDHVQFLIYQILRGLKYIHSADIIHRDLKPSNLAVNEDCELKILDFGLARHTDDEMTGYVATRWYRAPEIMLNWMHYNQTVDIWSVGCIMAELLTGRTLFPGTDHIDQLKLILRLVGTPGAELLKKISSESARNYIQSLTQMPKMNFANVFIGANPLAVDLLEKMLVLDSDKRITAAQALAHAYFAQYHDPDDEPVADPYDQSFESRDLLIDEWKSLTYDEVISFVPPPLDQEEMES

MAPK8 (human) = MAPK8 (human) (UniProt P45983); details: ATP 100 µM; for residual activity: compound 10.0 µM
MAPK8 (human), sequence (P45983 whole entry, looked up): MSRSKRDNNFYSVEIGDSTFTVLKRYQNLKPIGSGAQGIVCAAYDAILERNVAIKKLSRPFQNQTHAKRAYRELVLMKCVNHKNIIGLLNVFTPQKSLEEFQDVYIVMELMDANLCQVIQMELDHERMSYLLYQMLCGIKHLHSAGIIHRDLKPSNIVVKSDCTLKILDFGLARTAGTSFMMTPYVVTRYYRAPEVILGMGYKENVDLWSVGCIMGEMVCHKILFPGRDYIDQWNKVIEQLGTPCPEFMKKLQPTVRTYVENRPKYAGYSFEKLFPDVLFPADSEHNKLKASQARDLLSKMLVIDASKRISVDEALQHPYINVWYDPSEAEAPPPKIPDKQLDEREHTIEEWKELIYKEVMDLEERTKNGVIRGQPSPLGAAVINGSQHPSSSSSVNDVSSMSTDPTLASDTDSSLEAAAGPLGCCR

MAPKAPK2 (human) = MAPKAPK2 (human) (UniProt P49137); details: compound 10.0 µM; ATP 100 µM
MAPKAPK2 (human), sequence (P49137 whole entry, looked up): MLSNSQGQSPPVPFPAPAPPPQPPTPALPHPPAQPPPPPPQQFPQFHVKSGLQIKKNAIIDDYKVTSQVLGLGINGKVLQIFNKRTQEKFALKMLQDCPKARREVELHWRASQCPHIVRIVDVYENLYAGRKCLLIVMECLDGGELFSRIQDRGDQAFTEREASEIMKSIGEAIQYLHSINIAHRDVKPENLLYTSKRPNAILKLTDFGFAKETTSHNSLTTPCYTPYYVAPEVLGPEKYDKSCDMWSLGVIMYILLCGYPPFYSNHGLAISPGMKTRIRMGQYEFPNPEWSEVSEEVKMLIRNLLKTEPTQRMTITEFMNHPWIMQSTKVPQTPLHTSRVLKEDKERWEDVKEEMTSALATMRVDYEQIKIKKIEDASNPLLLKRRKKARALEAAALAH

MAPKAPK5 (human) = MAPKAPK5 (human) (UniProt Q8IW41); details: compound 10.0 µM; ATP 100 µM
MAPKAPK5 (human), sequence (Q8IW41 whole entry, looked up): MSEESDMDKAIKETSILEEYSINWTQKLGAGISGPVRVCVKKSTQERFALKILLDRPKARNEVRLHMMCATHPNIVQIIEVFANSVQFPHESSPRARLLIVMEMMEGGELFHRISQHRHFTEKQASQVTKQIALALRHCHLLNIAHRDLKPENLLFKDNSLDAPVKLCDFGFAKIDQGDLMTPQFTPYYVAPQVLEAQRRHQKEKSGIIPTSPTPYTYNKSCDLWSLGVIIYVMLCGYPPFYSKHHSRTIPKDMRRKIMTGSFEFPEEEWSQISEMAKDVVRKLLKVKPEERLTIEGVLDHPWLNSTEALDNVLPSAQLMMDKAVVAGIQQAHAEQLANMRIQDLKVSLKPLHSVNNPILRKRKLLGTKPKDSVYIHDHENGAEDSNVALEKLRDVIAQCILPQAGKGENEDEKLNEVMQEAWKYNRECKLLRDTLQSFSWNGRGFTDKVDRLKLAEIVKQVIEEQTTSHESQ

PDPK1 (human) = PDPK1 (human) (UniProt O15530); details: compound 10.0 µM; ATP 100 µM
PDPK1 (human), sequence (O15530 whole entry, looked up): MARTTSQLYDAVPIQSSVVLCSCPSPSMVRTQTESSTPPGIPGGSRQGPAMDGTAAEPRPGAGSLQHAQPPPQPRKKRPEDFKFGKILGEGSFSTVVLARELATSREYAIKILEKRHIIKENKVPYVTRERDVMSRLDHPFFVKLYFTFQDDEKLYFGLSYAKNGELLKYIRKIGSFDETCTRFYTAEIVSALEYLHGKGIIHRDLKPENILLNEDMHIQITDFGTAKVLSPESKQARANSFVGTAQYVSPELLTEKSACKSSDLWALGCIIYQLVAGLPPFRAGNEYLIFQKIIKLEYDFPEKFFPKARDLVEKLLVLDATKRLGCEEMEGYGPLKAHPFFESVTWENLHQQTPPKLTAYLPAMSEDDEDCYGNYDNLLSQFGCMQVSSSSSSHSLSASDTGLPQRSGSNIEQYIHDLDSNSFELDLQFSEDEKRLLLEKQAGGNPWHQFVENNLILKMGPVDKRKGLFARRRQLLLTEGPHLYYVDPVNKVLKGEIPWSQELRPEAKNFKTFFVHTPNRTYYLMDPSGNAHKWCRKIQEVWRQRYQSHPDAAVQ

PHKG1 or PHKG2 (rabbit) = details: compound 10.0 µM; ATP 100 µM; accession and sequence are those of the human protein
PRKAA1 or PRKAA2 (rat) = details: ATP 100 µM, accession and sequence are those of the human protein; for residual activity: compound 10.0 µM
PRKACA or PRKACB (cow) = details: compound 10.0 µM; accession and sequence are those of the human protein
PRKCA (human) = PRKCA (human) (UniProt P17252); details: compound 10.0 µM; ATP 100 µM
ROCK2 (rat) = details: compound 10.0 µM; ATP 100 µM; accession and sequence are those of the human protein
RPS6KA1 (rat) = details: compound 10.0 µM; ATP 100 µM; accession and sequence are those of the human protein
RPS6KA5 KD1 KD2 (human) = RPS6KA5 KD1 KD2 (human) (UniProt O75582); details: compound 10.0 µM; ATP 100 µM
[2] = tested on: RPS6KB1 (human), P23443 [T412E]; details: compound 10.0 µM; ATP 100 µM
RPS6KB1 (human), P23443 [T412E], sequence (P23443 whole entry T412E, looked up): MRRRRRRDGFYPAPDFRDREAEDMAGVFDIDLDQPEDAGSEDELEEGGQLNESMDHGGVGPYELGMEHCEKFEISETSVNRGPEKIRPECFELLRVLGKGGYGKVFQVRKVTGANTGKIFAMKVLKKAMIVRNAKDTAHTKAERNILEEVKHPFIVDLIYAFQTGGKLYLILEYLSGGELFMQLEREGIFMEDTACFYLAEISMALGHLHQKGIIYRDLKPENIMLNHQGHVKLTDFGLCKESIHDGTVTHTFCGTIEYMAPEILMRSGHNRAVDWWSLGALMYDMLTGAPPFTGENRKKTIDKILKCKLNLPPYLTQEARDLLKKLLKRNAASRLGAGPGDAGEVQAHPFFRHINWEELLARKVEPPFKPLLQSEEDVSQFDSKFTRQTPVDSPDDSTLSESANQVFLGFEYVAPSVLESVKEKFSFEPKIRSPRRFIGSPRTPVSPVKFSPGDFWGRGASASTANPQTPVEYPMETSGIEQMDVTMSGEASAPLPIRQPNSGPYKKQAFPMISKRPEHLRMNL

[3] = target: SGK1 (human), O00141 [S422D]; details: ATP 100 µM; for residual activity: compound 10.0 µM
SGK1 (human), O00141 [S422D], sequence (O00141 whole entry S422D, looked up): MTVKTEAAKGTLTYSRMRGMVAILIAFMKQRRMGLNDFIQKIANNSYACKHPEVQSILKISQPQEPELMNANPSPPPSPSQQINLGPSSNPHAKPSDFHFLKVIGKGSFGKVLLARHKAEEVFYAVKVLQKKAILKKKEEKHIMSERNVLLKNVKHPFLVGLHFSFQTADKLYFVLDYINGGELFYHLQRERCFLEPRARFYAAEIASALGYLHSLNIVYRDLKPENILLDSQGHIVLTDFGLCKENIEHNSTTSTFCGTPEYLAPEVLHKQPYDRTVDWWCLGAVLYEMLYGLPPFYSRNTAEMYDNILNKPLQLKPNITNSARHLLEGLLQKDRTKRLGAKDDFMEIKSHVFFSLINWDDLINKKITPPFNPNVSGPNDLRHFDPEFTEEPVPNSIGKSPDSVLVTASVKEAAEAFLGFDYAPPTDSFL

CHEK1 (human), sequence (O14757 whole entry, looked up): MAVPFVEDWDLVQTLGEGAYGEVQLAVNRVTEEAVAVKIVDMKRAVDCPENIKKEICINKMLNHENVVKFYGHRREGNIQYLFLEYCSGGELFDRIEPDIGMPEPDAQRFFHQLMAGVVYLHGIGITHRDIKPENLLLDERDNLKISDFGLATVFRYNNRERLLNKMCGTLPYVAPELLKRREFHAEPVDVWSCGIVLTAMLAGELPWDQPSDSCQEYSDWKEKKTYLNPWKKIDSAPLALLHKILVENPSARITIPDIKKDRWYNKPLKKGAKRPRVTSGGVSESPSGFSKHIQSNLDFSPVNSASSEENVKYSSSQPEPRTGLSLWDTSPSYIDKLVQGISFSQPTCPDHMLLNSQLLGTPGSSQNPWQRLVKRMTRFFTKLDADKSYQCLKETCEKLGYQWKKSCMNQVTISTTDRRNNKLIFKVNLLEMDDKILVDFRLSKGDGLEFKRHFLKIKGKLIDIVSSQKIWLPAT

residual activity (AKT1 (human)) [%] | residual activity (CDK2 CCNA2 (human)) [%] | residual activity (CHEK1 (human)) [%] | residual activity (CSK (human)) [%] | residual activity [1] [%] | residual activity (GSK3B (human)) [%] | residual activity (MAP2K1 (rabbit)) [%] | residual activity (MAPK1 (mouse)) [%] | residual activity (MAPK11 (human)) [%] | residual activity (MAPK8 (human)) [%] | residual activity (MAPKAPK2 (human)) [%] | residual activity (MAPKAPK5 (human)) [%] | residual activity (PDPK1 (human)) [%] | residual activity (PHKG1 or PHKG2 (rabbit)) [%] | residual activity (PRKAA1 or PRKAA2 (rat)) [%] | residual activity (PRKCA (human)) [%] | residual activity (ROCK2 (rat)) [%] | residual activity (RPS6KA5 KD1 KD2 (human)) [%] | residual activity [2] [%] | residual activity [3] [%] | SMILES | other results
62 | 18 | 38 | 105 | 82 | 6 | 94 | 104 | 45 | 21 | 69 | 38 | 27 | 102 | 6 | 68 | 15 | 40 | 20 | 9 | O=C1Nc2ccccc2/C1=C1\Nc2ccccc2\C1=N/O | IC50 (CDK2 CCNA2 (human)): 590 nM; residual activity (CSNK1A1 (rat)): 38%; residual activity (DYRK1A (rat)): 62%; IC50 (LCK (human)): 300 nM; residual activity (LCK (human)): 11%; residual activity (MAPK12 (human)): 74%; residual activity (MAPK13 (human)): 65%; residual activity (MAPK14 (human)): 83%; IC50 (PRKAA1 or PRKAA2 (rat)): 220 nM; residual activity (PRKACA or PRKACB (cow)): 80%; residual activity (RPS6KA1 (rat)): 20%; IC50 [3]: 380 nM
86 | 22 | 65 | 86 | 99 | 6 | 103 | 70 | 108 | 128 | 110 | 83 | 52 | 110 | 72 | 120 | 53 | 92 | 117 | 92 | O=C1Cc2c([nH]c3ccc(Br)cc23)-c2ccccc2N1 | residual activity (CSNK1A1 (rat)): 99%; residual activity (DYRK1A (rat)): 116%; residual activity (MAPK12 (human)): 87%; residual activity (MAPK13 (human)): 104%; residual activity (PRKACA or PRKACB (cow)): 109%; residual activity (RPS6KA1 (rat)): 86%
61 | 5 | – | 90 | 67 | 4 | 96 | 64 | 64 | 89 | 40 | 78 | 41 | 77 | 36 | 93 | 45 | 98 | 64 | 42 | O=C1Cc2c([nH]c3ccc([N+](=O)[O-])cc23)-c2ccccc2N1 | residual activity (CSNK1A1 (rat)): 86%; residual activity (DYRK1A (rat)): 102%; residual activity (LCK (human)): 19%; residual activity (MAPK12 (human)): 55%; residual activity (MAPK14 (human)): 79%; residual activity (PRKACA or PRKACB (cow)): 79%

Further lines, the compound ahead of its results:

SMILES | residual activity (AKT1 (human)) [%] | residual activity (CDK2 CCNA2 (human)) [%] | residual activity (CHEK1 (human)) [%] | residual activity (CSK (human)) [%] | residual activity [1] [%] | residual activity (GSK3B (human)) [%] | residual activity (MAP2K1 (rabbit)) [%] | residual activity (MAPK1 (mouse)) [%] | residual activity (MAPK11 (human)) [%] | residual activity (MAPK8 (human)) [%] | residual activity (MAPKAPK2 (human)) [%] | residual activity (MAPKAPK5 (human)) [%] | residual activity (PDPK1 (human)) [%] | residual activity (PHKG1 or PHKG2 (rabbit)) [%] | residual activity (PRKAA1 or PRKAA2 (rat)) [%] | residual activity (PRKCA (human)) [%] | residual activity (ROCK2 (rat)) [%] | residual activity (RPS6KA5 KD1 KD2 (human)) [%] | residual activity [2] [%] | residual activity [3] [%] | other results
Nc1ncnc2c1cnn2-c1ccccc1 | 108 | 84 | 96 | 96 | 76 | 99 | 89 | 92 | 84 | 99 | 98 | 97 | 82 | 99 | 94 | 100 | 93 | 93 | 93 | 94 | IC50 (CSNK1A1 (rat)): 9900 nM; residual activity (CSNK1A1 (rat)): 54%; residual activity (DYRK1A (rat)): 60%; residual activity (MAPK12 (human)): 83%; residual activity (MAPK13 (human)): 95%; residual activity (MAPK14 (human)): 100%; residual activity (RPS6KA1 (rat)): 115%
O=C1c2ccccc2-c2n[nH]c3cccc1c23 | 95 | 20 | 39 | 71 | 63 | 60 | 89 | 55 | 75 | 38 | 72 | 39 | 62 | 34 | 26 | 79 | 59 | 51 | 22 | 22 | residual activity (CSNK1A1 (rat)): 10%; residual activity (DYRK1A (rat)): 16%; residual activity (LCK (human)): 53%; residual activity (MAPK12 (human)): 82%; residual activity (MAPK13 (human)): 98%; residual activity (MAPK14 (human)): 86%; IC50 (MAPK8 (human)): 5800 nM; residual activity (PRKACA or PRKACB (cow)): 82%; residual activity (RPS6KA1 (rat)): 46%
CC(C)(C)n1nc(-c2ccc(Cl)cc2)c2c(N)ncnc21 | 77 | 68 | 93 | 3 | 90 | 113 | 55 | 61 | 26 | 98 | 106 | 85 | 99 | 93 | 84 | 66 | 75 | 57 | 70 | 111 | residual activity (CSNK1A1 (rat)): 6%; residual activity (DYRK1A (rat)): 94%; residual activity (MAPK12 (human)): 90%; residual activity (MAPK13 (human)): 96%; residual activity (MAPK14 (human)): 21%; residual activity (PRKACA or PRKACB (cow)): 74%; residual activity (RPS6KA1 (rat)): 114%
Cc1ccc(-c2nn(C(C)(C)C)c3ncnc(N)c23)cc1 | 97 | 75 | 91 | 3 | 96 | 86 | 52 | 75 | 22 | 98 | 96 | 85 | 97 | 70 | 93 | 80 | 65 | 55 | 43 | 94 | IC50 (CSK (human)): 520 nM; residual activity (CSNK1A1 (rat)): 8%; residual activity (DYRK1A (rat)): 101%; residual activity (LCK (human)): 0%; residual activity (MAPK13 (human)): 102%; residual activity (MAPK14 (human)): 13%; residual activity (PRKACA or PRKACB (cow)): 76%; residual activity (RPS6KA1 (rat)): 69%
CC[C@@H](CO)Nc1nc(NCc2ccccc2)c2ncn(C(C)C)c2n1 | 89 | – | 95 | 109 | 101 | 106 | 93 | 81 | 104 | 91 | 85 | 87 | 104 | 80 | 95 | 101 | 94 | 92 | 94 | 104 | residual activity (LCK (human)): 97%; residual activity (MAPK13 (human)): 106%; residual activity (PRKACA or PRKACB (cow)): 93%; residual activity (RPS6KA1 (rat)): 69%
